Test results published in patent US20190134004A1, “METHODS AND COMPOSITIONS FOR TREATING BREAST AND PROSTATE CANCER” (The University of Chicago, priority 2016, published 2019).
“Also recorded” adds a separate entry of the source.

What was measured:
[1] = test system: GR (NR3C1) target gene expression; experiment: Dex-mediated GR target gene expression (KLK3, SGK1, FKBP5) with BET inhibition in LNCaP-EnzR cells; type: cell-based, human; settings: three days R1881 and enzalutamide, then Dex or Dex+JQ1, relative to RE, p<0.05
Procedure: FIG. 2. Dex-mediated GR (NR3C1) target gene expression decreased with BETinhibition. LNCaP-EnzR cells were treated for three days of R1881 and enzalutamide (RE), after which cells stimulated with Dex (D) or Dex+JQ1. All conditions relative to RE. Changes all significant p<0.05 with no change in GR expression across conditions. Each series of bars from left to right corresponds to data from RE, RED, and RED-JQl.
The inventors have also verified that the principal BET-BRD proteins inhibited by a BET inhibitor (ABT-075), BRD4 and BRD3 are expressed within the Enza-R CRPC cell lines. […] It was next sought to explore whether for specific, known GR-regulated in PC cells genes (KLK3, SGK1, FKBPS) the BET inhibitor tool compound JQ1 was able to decrease GR mediated gene expression.

[2] = test system: LNCaP-EnzaR cells; experiment: Cell viability of LNCaP-EnzaR cells treated with R1881, enzalutamide, Dex with or without JQ1; type: cell-based, human; settings: 3 days
Procedure: FIG. 3. […] LNCaP-EnzR cells were treated for three days of R1881 and enzalutamide (RE), concurrently with vehicle, Dex (D) or D+JQ1. Error bars=standard error of mean. The bars, from left to right, correspond to RE, RED, and RED-JQ 1.
BET-inhibition decreases Enza-R survival in vitro despite dexamethasone. It has been reported that the BET inhibitor JQ1 (100-500 nM) can decrease Enza-R cell survival, potentially through inhibition of ligand independent AR splice variants.

[3] = test system: Enza-R cells; settings: JQ1 100-500 nM; reported; cited from earlier work
[4] = test system: GR binding sites; experiment: GR ChIP-seq in LAPC4 cells after addition of dexamethasone; type: cell-based, human
Description: The inventors recently discovered that within PC cells, activated GR can compensate transcriptionally for a large set of genes. […] In a companion experiment using chromatin immunoprecipitation followed by deep sequeicing (ChIP-seq) in LAPC4 cells, the addition of dexamethasone to activate the GR leads to ˜700 new unique GR binding sites, approximately 70 of these new sites are within 5 kilobase (kb) of the transctiption start site of known genes. This argues that the majority of GR chromatin binding and subsequent gene regulation is through regulation at more distant enhancer sites rather then through direct promoter site binding. As bromodomain proteins such as BRD4 cooperate with known transcription factors, including the GR, at such enhancers to enable gene regulation, the inventors sought to establish whether BRD4 and GR cooperate to regulate pro-survival genes in Enza-R CRPC.

Row | Structure (SMILES) | GR mediated gene expression (KLK3, SGK1, FKBPS) [1] | viable cell numbers (Dex-mediated cell viability) ([2]; JQ1 500 nM with dexamethasone 100 nM, R1881 1 nM, enzalutamide 10 μM) | Enza-R cell survival [3] | new unique GR binding sites [4] | viable cell numbers ([2]; dexamethasone 100 nM with R1881 1 nM and enzalutamide 10 μM)
1 | Cc1sc2c(c1C)C(c1ccc(Cl)cc1)=N[C@@H](CC(=O)OC(C)(C)C)c1nnc(C)n1-2 [JQ1] | significantly countered; also recorded: decreased | significantly decreased | can decrease | – | –
2 | C[C@@H]1C[C@H]2[C@@H]3CCC4=CC(=O)C=C[C@]4(C)[C@@]3(F)[C@@H](O)C[C@]2(C)[C@@]1(O)C(=O)CO [Dex, dexamethasone] | – | – | – | ~700 | increases
